# Results: article PMC6274398, “Three Novel Triterpenoids from Taraxacum officinale Roots” (Molecules, 2016)
# Read-outs that look alike come from different tables or passages of the source.
# How the values were obtained:
# RAW264.7 cells = experiment: RAW264.7 cell proliferation / cell viability (MTT); format: cell-based, mouse; details: for Cell Viavility %: 24 h, MTT, vs DMSO (100%), mean ± S.E., n=4
# Method: RAW264.7 cell proliferation was examined in accordance with a previously reported method. Briefly, RAW264.7 cells (5 × 10^4 cells in 100 μL) were seeded on a 96-well microplate and incubated for 24 h. Dulbecco's modified eagle's medium (DMEM)-containing test samples (100 μL total volume, final concentration of 30, 10, 3, or 1 μM) dissolved in dimethyl sulfoxide (DMSO, final concentration 0.2%) was added. After being treated for 24 h, thiazolyl blue tetrazolium bromide (MTT) solution was added. After a 3-h incubation, 20% sodium dodecyl sulfate in 0.1 M HCl was added to dissolve the formazan produced in the cells. Absorbance in each well was read at 570 nm using a microplate reader. The optical density of vehicle control cells was assumed to be 100%.
# [1] = tested on: NO production in RAW 264.7 mouse macrophages stimulated by lipopolysaccharide (LPS); experiment: Inhibitory assay of NO production (Griess) in LPS-stimulated RAW264.7 cells; format: cell-based; details: for IC50 / activity at 1 µM / activity at 3 µM / activity at 10 µM / activity at 30 µM: Mus musculus; for IC50: read-out: IC50 (inhibition of NO production); for activity at 1 µM / activity at 3 µM / activity at 10 µM / activity at 30 µM: read-out: Produced NO %; for NO inhibitory activity (in words): 1–30 μM tested
# Method: An inhibitory assay of NO production was examined in accordance with a previously reported method with minor modifications. Briefly, RAW264.7 cells (5 × 10^4 cells in 100 μL) were seeded on a 96-well microplate and incubated for 24 h. DMEM-containing test samples (100 μL total volume, final concentration of 30, 10, 3, or 1 μM) dissolved in DMSO (final concentration 0.2%) and LPS (final concentration of 5 μg/mL) was added. After being treated for 24 h, the supernatant of the culture medium was transferred to another 96-well microplate, and 50 μL of 0.15% N-(1-naphtyl)ethylenediamine in H2O and 1.5% sulfanilamide in 7.5% phosphoric acid were then added. After being incubated for 30 min, absorbance in each well was read at 570 nm using a microplate reader. The optical density of vehicle control cells was assumed to be 100%
# [2] = RAW264.7, 1 μM, LPS 5 μg/mL, 24 h, vs DMSO (100%), mean ± S.E., n=4
# [3] = RAW264.7, 3 μM, LPS 5 μg/mL, 24 h, vs DMSO (100%), mean ± S.E., n=4
# [4] = RAW264.7, 10 μM, LPS 5 μg/mL, 24 h, vs DMSO (100%), mean ± S.E., n=4
# [5] = RAW264.7, 30 μM, LPS 5 μg/mL, 24 h, vs DMSO (100%), mean ± S.E., n=4
"IC50 ([1]; LPS-stimulated RAW264.7, 24 h) [µM]",SMILES,Cell Viavility % (RAW264.7 cells; 1 μM),Cell Viavility % (RAW264.7 cells; 3 μM),Cell Viavility % (RAW264.7 cells; 10 μM),Cell Viavility % (RAW264.7 cells; 30 μM),"IC50 ([1]; RAW264.7, 24 h) [µM]","activity at 1 µM ([1]; RAW264.7, 24 h) [%]","activity at 3 µM ([1]; RAW264.7, 24 h) [%]","activity at 10 µM ([1]; RAW264.7, 24 h) [%]","activity at 30 µM ([1]; RAW264.7, 24 h) [%]","activity at 1 µM [1, 2] [%]","activity at 3 µM [1, 3] [%]","activity at 10 µM [1, 4] [%]","activity at 30 µM [1, 5] [%]",melting point [°C],Cytotoxicity at effective concentration (in words) (RAW264.7 cells; at 1–10 μM),Cytotoxicity (in words) (RAW264.7 cells; at higher concentrations),NO inhibitory activity (in words) [1],Cytotoxicity at effective concentration (in words) (RAW264.7 cells; at 1 and 3 μM),Cytotoxicity (in words) (RAW264.7 cells; at 1–30 μM)
,"CO[C@H]1C[C@]2(C)CC[C@]3(C)[C@H](CC[C@@H]4[C@@]5(C)CC[C@H](OC(C)=O)C(C)(C)[C@@H]5CC[C@]43C)[C@@]23O[C@@]13C(C)C [Compound 1, 18β,19β-epoxy-21β-methoxylupan-3β-yl acetate]",(95.0 ± 0.7) %,(104.2 ± 1.3) %,(102.6 ± 0.7) %,(107.4 ± 2.0) %,> 30,94.8 ± 1.2,101.4 ± 0.7,90.5 ± 2.4,95.7 ± 4.6,,,,,,,,,,
,"CC(=O)O[C@H]1CC[C@]2(C)[C@H]3CC[C@@]4(C)[C@H]([C@H](C)CCC=C(C)C)CC[C@]4(C)C3=CC(=O)[C@H]2C1(C)C [Compound 3, 3β-acetoxyeupha-7,24-dien-6-one]",(100.0 ± 1.4) %,(94.6 ± 8.2) %,(104.2 ± 0.7) %,(103.8 ± 1.0) %,> 30,101 ± 2.6,93.7 ± 1.4,93.3 ± 1.6,93.1 ± 0.9,,,,,140 to 143,,,,,
,"CC(=O)O[C@H]1CC[C@]2(C)[C@H]3CC[C@@H]4[C@@]56O[C@]5(C(C)C)[C@@H](O)C[C@]6(C)CC[C@@]4(C)[C@]3(C)CC[C@H]2C1(C)C [Compound 4, 18β,19β-epoxy-21β-hydroxylupan-3β-yl acetate]",(98.4 ± 0.9) %,(97.9 ± 0.3) %,(92.7 ± 1.0) %,(49.5 ± 0.7) %,16.9,83.6 ± 0.9,76.8 ± 2.5,66 ± 0.8,35.4 ± 2.2,,,,,,did not exhibit cytotoxicity,some cytotoxicity,exhibited NO inhibitory activities,,
,"CC(=O)O[C@H]1CC[C@]2(C)[C@H]3CC[C@@H]4C5=C(C(C)C)C(=O)C[C@]5(C)CC[C@@]4(C)[C@]3(C)CC[C@H]2C1(C)C [Compound 5, 21-oxolup-18-en-3β-yl acetate]",(98.4 ± 3.1) %,(94.8 ± 3.9) %,(90.7 ± 1.8) %,(88.9 ± 2.3) %,> 30,110 ± 5.2,106 ± 3.2,94.9 ± 4.3,92.7 ± 4.7,,,,,,,,,,
,"C=C(C)[C@@H]1CC[C@]2(CO)CC[C@]3(C)[C@H](CC[C@@H]4[C@@]5(C)CC[C@H](O)C(C)(C)[C@@H]5CC[C@]43C)[C@@H]12 [Compound 6, betulin]",(99.8 ± 0.1) %,(93.7 ± 1.1) %,(76.7 ± 0.7) %,(66.7 ± 1.2) %,17,83.4 ± 1.5,75 ± 3.2,65.4 ± 0.5,36.3 ± 0.6,,,,,,,some cytotoxicity,exhibited NO inhibitory activities,did not exhibit cytotoxicity,
> 30,"CC(C)C1=CC(=O)C(C)CCC2(C)C(CCC3C4(C)CCC(=O)C(C)(C)C4CCC32C)C1=O (stereo not drawn) [Compound 7, officinatrione]",(98.3 ± 2.6) %,(103.0 ± 2.4) %,(99.7 ± 3.8) %,(99.8 ± 3.0) %,,,,,,101 ± 1,101 ± 2.5,89.8 ± 1.1,66.8 ± 0.8,,,,exhibited NO inhibitory activities,,no cytotoxicity
> 30,"CO[C@@H]1C=C2[C@@H]3CC(C)(C)CC[C@]3(C)CC[C@@]2(C)[C@]2(C)CC[C@H]3C(C)(C)C(=O)CC[C@]3(C)[C@@H]12 [Compound 8, 11α-methoxyolean-12-en-3-one]",(99.9 ± 0.1) %,(100.4 ± 0.1) %,(100.5 ± 0.2) %,(103.0 ± 1.6) %,,,,,,102.9 ± 0.7,105 ± 3.1,90.2 ± 7.1,64.1 ± 3.3,,,,exhibited NO inhibitory activities,,no cytotoxicity
,"CC(C)=CCC[C@@H](C)[C@@H]1CC[C@]2(C)C3=CC[C@H]4C(C)(C)C(=O)CC[C@]4(C)[C@H]3CC[C@@]12C [Compound 9, eupha-7,24-dien-3-one]",(99.3 ± 0.2) %,(98.8 ± 0.2) %,(99.1 ± 0.4) %,(99.9 ± 0.6) %,> 30,98.4 ± 3.9,100 ± 1.6,109 ± 2,108 ± 4.7,,,,,,,,,,
,C=C(C)C(=O)CC[C@@H](C)[C@@H]1CC[C@]2(C)C3=CC[C@H]4C(C)(C)[C@@H](OC(C)=O)CC[C@]4(C)[C@H]3CC[C@@]12C [Compound 10],(108.3 ± 4.7) %,(100.4 ± 0.2) %,(100.2 ± 0.1) %,(2.6 ± 0.4) %,18.4,93.8 ± 1.8,81.6 ± 3.7,67.5 ± 2.4,37 ± 1.8,,,,,,did not exhibit cytotoxicity,some cytotoxicity,exhibited NO inhibitory activities,,
23.9,"CNC(=N)NCCC[C@H](N)C(=O)O [L-NMMA, N^G-monomethyl-L-arginine acetate, reference compound]",(101.5 ± 0.9) %,(101.9 ± 0.4) %,(98.5 ± 0.9) %,(109.4 ± 0.5) %,,,,,,93.3 ± 2.2,91.4 ± 0.8,68.9 ± 4.5,43.1 ± 1.1,,,,,,

SMILES,"IC50 ([1]; LPS-stimulated RAW264.7, 24 h) [µM]",Cell Viavility % (RAW264.7 cells; 1 μM),Cell Viavility % (RAW264.7 cells; 3 μM),Cell Viavility % (RAW264.7 cells; 10 μM),Cell Viavility % (RAW264.7 cells; 30 μM),"IC50 ([1]; RAW264.7, 24 h) [µM]","activity at 1 µM ([1]; RAW264.7, 24 h) [%]","activity at 3 µM ([1]; RAW264.7, 24 h) [%]","activity at 10 µM ([1]; RAW264.7, 24 h) [%]","activity at 30 µM ([1]; RAW264.7, 24 h) [%]","activity at 1 µM [1, 2] [%]","activity at 3 µM [1, 3] [%]","activity at 10 µM [1, 4] [%]","activity at 30 µM [1, 5] [%]",melting point [°C],Cytotoxicity at effective concentration (in words) (RAW264.7 cells; at 1–10 μM),Cytotoxicity (in words) (RAW264.7 cells; at higher concentrations),NO inhibitory activity (in words) [1],Cytotoxicity at effective concentration (in words) (RAW264.7 cells; at 1 and 3 μM),Cytotoxicity (in words) (RAW264.7 cells; at 1–30 μM)
"CC(=O)O[C@H]1CC[C@]2(C)[C@H]3CC[C@@]4(C)[C@@H]5[C@@H](C)[C@H](C)CC[C@]5(C)CC[C@]4(C)C3=CC(=O)[C@H]2C1(C)C [Compound 2, 3β-acetoxybauer-7-en-6-one]",> 30,(100.0 ± 1.3) %,(102.2 ± 0.3) %,(105.1 ± 0.3) %,(105.7 ± 2.0) %,,,,,,95.6 ± 2.7,101 ± 2.6,86.5 ± 1.4,71.4 ± 1.8,110 to 112,,,,,
